In patent US8911995B2, “Culture system and method for immunogenicity and immunofunction testing in vitro” (ProBioGen AG, priority 2007, dated 2014):

System: human PBMC
Test: Cytokine profile of matrix-embedded, perfused PBMC cultures in device 1 (multiplex bead array)
Type: cell-based
Procedure: Cryopreserved human PBMC, isolated from whole blood by ficoll density gradient centrifugation, were revitalised using standard protocols. The cell concentration was adjusted to 3 E8 viable cells per mL in X-Vivo 15 cell culture media (Lonza, Basel, Switzerland) supplemented with 5 mg/mL agarose type VII (made from 50 mg/mL 37° C. liquid solution, Sigma-Aldrich, St. Louis, Mo.), 2.5 μg/mL fibronectin (human, Sigma-Aldrich, St. Louis, Mo.) and 1× penicillin/streptomycin solution (100×, Invitrogen, Carlsbad, Calif.).
The device was made of a 1 mm PC plate housing the culture compartment, feeding and draining canals (see FIGS. 1 and 1A). The plate was covered with a 1 mm PC plate on top were the luer connectors were attached and a gas permeable membrane (Biofoil25, Greiner bio-one, Kremsmünster, Germany) at the bottom of the plate for optimal gas supply of the culture. The culture compartment of this special embodiment of device 1 has a volume of 160 μL. The device was incubated in a humidified incubator (37° C./5% carbon dioxide).
Three culture compartments of the device, further illustrated in FIG. 1A, were filled with cell suspension in liquid agarose media avoiding air bubbles (4,8 E7 viable PBMC/compartment). The whole culture device was cooled down to 4° C. for 5 min in order to let the matrix gel. Subsequently the surrounding fluidic system was prefilled with X-Vivo 15 cell culture media and was applied to the luer connectors of the culture device. A flow rate of 13.1 μL/h was set up using a peristaltic media pump.
Samples were taken every day and immediately frozen down to −20° C. for subsequent cytokine analyses using multiplex bead array technology (Luminex, Austin, Tex.).
After the second sample was taken 24 hours after innoculation, 100 μL OKT-3 antibody (100 ng/mL solution in X-Vivo 15, Ortho Biotech, Bridgewater, N.J.) were administered via an injection site in the fluidic system. 5 days after inoculation the last sample was taken and viability of the cultures was checked with acridine orange (1 μg/mL, Sigma, St. Louis, […].) and ethidium bromide (4 μg/mL, Sigma, St. Louis, […].).
The experiment was conducted as described in example 1. PBMCs were derived from a differed donor and cells were subsequently cultured in RPMI 1640 (Invitrogen, Carlsbad, Calif.) supplemented with 10% FCS (Biochrom, Berlin, Germany) and 1× penicillin/streptomycin solution (100×, Invitrogen, Carlsbad, Calif.). As described previously, the culture compartment of culture device 1 (see FIGS. 1 and 1A) was filled with liquid agarose-media (RPMI 1640 10% FCS cell culture media supplemented with 5 mg/mL agarose type VII (from 50 mg/mL 37° C. liquid solution, Sigma-Aldrich, St. Louis, Mo.), 2.5 μg/mL fibronectin (human, Sigma-Aldrich, St. Louis, Mo.) and 1× penicillin/streptomycin solution (100×, Invitrogen, Carlsbad, Calif.) and cells (4,8 E7 PBMC/compartment). After pre-incubation for 24 hours with a constant perfusion rate of 13.1 μL culture media, 100 μL of a 100 ng/mL OKT-3 solution was administered. Samples were taken every 24 hours and frozen down to −20° C. before the cytokine levels were determined.

[1] = Example 1, X-Vivo 15 medium, 100 μL of 100 ng/mL OKT-3
[2] = Example 2, different donor, RPMI 1640 10% FCS, 100 μL of 100 ng/mL OKT-3

With Muromonab-CD3 [OKT-3] as the substance, how does the IFN-gamma release [1] read?
The IFN-gamma release was “released”.

And the IL-5 level [1]?
The IL-5 level was “raises initially”.

What about the TNF-alpha release [1] of the same substance?
Its TNF-alpha release is “released”.

And the IL-2 release (Example 1, X-Vivo 15 medium, 24 hours after administration of 100 μL of 100 ng/mL OKT-3)?
The IL-2 release was “massive IL-2 burst”.

What about the “IL-2 level after the initial burst” value (Example 1, X-Vivo 15 medium, after 72 hours) of the same substance?
The value was “declined”.

And the IFN-gamma level [2]?
Its IFN-gamma level is “only raise slightly”.

And the IL-2 release [2]?
The IL-2 release was “massive IL-2 release”.

What about the IL-5 level [2] of the same substance?
The IL-5 level was “raises initially”.

What about the TNF-alpha level [2] of the same substance?
The TNF-alpha level was “only raise slightly”.
